For one data set, the target named is MEK1 (Homo sapiens, UniProt Q02750). As to the kind of experiment: Biochemical MEK1 assay (ELISA, ERK2-coated plate). The protocol:
A biochemical MEK1 assay was carried out to investigate whether compounds of formula (I) or (II), e.g., compounds 029, 091, 106 and 114 are MEK1 inhibitors. Biochemical MEK1 inhibition of the compounds was assessed using an ELISA assay. All assays were performed in a 96 well format. A plate coated with ERK2, a substrate protein for MEK1 was used for biochemical MEK1 assay. In a final volume of 40 μL, MEK1 (25 ng) was incubated with 50 mmol/L HEPES, 20 mmol/L MgCl2, 4 mmol/L MnCl2, and 0.5 mmol/L Na3VO4 in the absence or presence of the test compounds. The reaction was initiated by the addition of 1 μmol/L ATP. After incubation for 40 minutes at 30° C., the reaction mixture was discarded and the plate was then washed 4 times with 0.05% Tween20/PBS. Each well was incubated with 100 μL of 1:4000 diluted phospho-ERK1/2 monoclonal antibody (Cell Signaling, MA) for 1.5 hours at room temperature. The antibody was then discarded and the plate was washed 6 times with 0.05% Tween20/PBS. Finally, 100 μL of 1:2000 diluted of HRP conjugated anti-mouse IgG antibody (Cell Signaling, MA) was added. After incubation for 90 minutes, this antibody was discarded and the plate was washed 8 times with 0.05% Tween20/PBS. Phosphorylated ERK2 was then visualized by peroxidase reaction, and read at 450 nm. FIG. 2A is a table depicting results from MEK1 assays.
(An ELISA detects its analyte on a solid surface through an enzyme-linked reagent.)

Data set [1] relates to LOX human melanoma xenografts. As to the kind of experiment: In vivo antitumor activity in LOX xenografts. Also on record: species or system mice. The protocol: A study was carried out to investigate anticancer activity of compounds 091 and 106 in human LOX BRAF mutated melanoma xenografts. The compounds were evaluated against subcutaneous-implanted LOX human melanoma xenografts in female athymic mice.
The human melanoma cell line, LOX which has B-RAF (V600E) mutation was transplanted subcutaneously into female nude mice. The experiment consisted of 8 mice per group on the first day of treatment. Compounds were independently administered intravenously for two weekly rounds of five daily injections (q1d×5) with a two-day rest period between the rounds. Compounds were administered in a vehicle volume of 0.1 mL/10 g of body weight.
The general health of the mice was monitored daily. Tumor dimensions and body weights were recorded twice a week starting on the first day of treatment. Tumor weights were calculated using the equation (l×w^2)/2, where 1 and w refer to the larger and smaller dimensions collected at each measurement. When the mean tumor volume reached 128 mm^3, vehicle (cremophor:ethanol:5% glucose; 1:1:8) or one of the test compounds (10, 20, 30, or 40 mg/kg) was administered to mice (8/group).

Data set [2] deals with human hematologic cancer cell lines. Description: Antiproliferative effects in hematologic cancer cell lines (MTT assay). To be noted: two cell lines derived from B-cell non-Hodgkin's lymphoma, 96 h. It is filed as cell-based. How it is done: A study was carried out to investigate anticancer activity of compounds 091 and 106 in a panel of human hematologic cancer cell lines in vitro. Antiproliferative effects of compounds 091 and 106 were evaluated in 7 human cancer cell lines representing several different cancer types of hematologic malignancy. […] Cell growth was assessed using the MTT assay.

Data set [3] can be described thus: Blood brain barrier penetration. The note with it: in vivo.

Structures are written as SMILES.

MEK1, sequence (Q02750 whole entry): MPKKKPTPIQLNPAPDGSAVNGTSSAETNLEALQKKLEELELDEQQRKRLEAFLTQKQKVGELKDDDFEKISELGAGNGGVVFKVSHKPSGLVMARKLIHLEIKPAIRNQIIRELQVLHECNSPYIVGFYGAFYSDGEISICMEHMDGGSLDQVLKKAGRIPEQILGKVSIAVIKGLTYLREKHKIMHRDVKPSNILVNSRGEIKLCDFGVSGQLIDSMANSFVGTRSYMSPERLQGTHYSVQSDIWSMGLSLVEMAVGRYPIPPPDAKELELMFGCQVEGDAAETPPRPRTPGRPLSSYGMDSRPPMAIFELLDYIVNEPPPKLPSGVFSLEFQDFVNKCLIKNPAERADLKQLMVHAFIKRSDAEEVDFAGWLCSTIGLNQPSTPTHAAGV

As to `CNc1cc(O)c2c(c1)/C=C/C[C@H](O)[C@H](O)C(=O)/C=C\[C@@H](C)[C@H](C)OC2=O` [Compound 091], the MEK1 inhibitory activity result at MEK1 (1 μmol/L ATP) is recorded as “low nM activity”. Further, the “MEK1 inhibitory activity, dependence on ATP” value at MEK1 (at a low concentration of ATP) is given as “more potent”. Further, the tumor regression amounted to 100% in data set [1] (10 mg/kg i.v., for the first three weeks); 100% in data set [1] (20 mg/kg i.v., in all mice); 100% in data set [1] (30 mg/kg i.v., in all mice); 100% in data set [1] (40 mg/kg i.v., in all mice). The “tumor status of mice at the end of the study” value in data set [1] (mice given 091) is on record as “tumor free”. In data set [2], the “sensitivity of cell growth” value was “sensitive”. Besides, the “brain/plasma AUC0-t ratio” value in data set [3] is given as 3.170.
